For eight compounds, viability, T/C and IC50 results are on record in PubChem BioAssay AID1918999 (Molecular Pharmacology Branch, DTP, NCI, 2023).

Where “and” joins values, the source holds several entries; their conditions need not be identical. Equal entries are not always repeated.

Usually viability, T/C stands for the ratio of treated to control. The term IC50 denotes the concentration that inhibits the measured activity by half.

The assay deals with 556581-035-R-J1-PDC complex spheroid growth. Briefly: Anticancer human tumor 556581-035-R-J1-PDC patient-derived ovarian carcinoma cell line growth inhibition [AhR]. Particulars: for viability, T/C: stronger effect = lower value. From the text:
Multicellular complex tumor spheroid response to aryl hydrocarbon receptor antagonists in combination with a variety of drugs and investigational agents in selected tumor cell lines
The current study was undertaken to assess response to aryl hydrocarbon receptor antagonists in combination with standard-of-care drugs and investigational agents in solid tumor complex spheroid models. Complex spheroids include a stromal component modeled by human endothelial cells (HUVEC) and fibroblasts modeled by human mesenchymal stem cells (MSCs). The concentration ranges selected for each drug and investigational agent were based upon clinically achievable concentrations if the clinical Cmax of the agent was known.
Compounds. The drugs and investigational agents: BAY 2416964 (NSC825713), GNF351 (NSC835774), CH-223191 (NSC835775), CPI-455 (NSC825282), aza-TdCyd (NSC777586), decitabine (NSC127716), belinostat (NSC758774), entinostat (NSC756642), pevonedistat (NSC761192), tazemetostat (NSC777109), talazoparib (NSC765396), olaparib (NSC753686), selinexor (NSC780203), nedisertib (M3814, NSC802822), bortezomib (NSC756655), venetoclax (NSC766270), doxorubicin (NSC123127), elimusertib (BAY189344, NSC800525), ceralasertib (AZD6738, NSC777638), TAK-243 (NSC785004), alisertib (NSC759677), etoposide (NSC141540), topotecan (NSC609699), eribulin (NSC707389), gemcitabine (NSC613327), carboplatin (NSC241240), cisplatin (NSC119875), and SN-38 (NSC673596) were obtained from the National Cancer Institute (NCI) Developmental Therapeutics Program Chemical Repository (32). The FDA-approved anticancer drug set is available from the Developmental Therapeutics Program at https://dtp.cancer.gov/organization/dscb/obtaining/available plates.htm. […] The stock solutions were prepared in dimethyl sulfoxide (DMSO, Sigma-Aldrich, St. Louis, MO, cat. D2650), except for the platinum compounds which were prepared in saline (Quality Biological, Gaithersburg, MD, cat. 114-055-101), at 800-fold the tested concentration and stored at -70 degrees C prior to their use. All drugs and investigational agents were tested over a range starting from a high concentration at or near the clinical Cmax and decreasing in half-log increments. If the clinical Cmax for an agent had not been determined, the highest concentration tested was 10 microM (Table 1).
Cell Culture. All cells were maintained in an incubator at 37 degrees C and 5% CO2 with 95% humidity. The PDC lines were cultured according to standard operating procedures established by the NCI PDMR (https://pdmr.cancer.gov). Briefly, all PDCs were thawed and cultured in Matrigel-coated flasks prepared with a working solution of 1X Ham's F-12 nutrient mix, without supplementation (Invitrogen, Waltham, MA, cat. 11765054), 100 U/mL penicillin-streptomycin (Invitrogen, cat. 15140122), and 2.5% Matrigel (Corning Inc., Corning, NY, cat. 354248) for the first three passages. All PDCs were cultured in complete DMEM/F-12 media containing advanced DMEM/F-12 (Invitrogen, cat. 12634028), 4.9% defined fetal bovine serum, heat inactivated (HyClone Laboratories Inc., Logan, UT, cat. SH30070.03HI), 389 ng/mL hydrocortisone (Sigma-Aldrich, cat. H4001), 9.7 ng/mL human EGF recombinant protein (Invitrogen, cat. PHG0313), 23.4 microg/mL adenine (Sigma-Aldrich, cat. A2786), 97.3 U/mL penicillin-streptomycin (Invitrogen, cat. 15140122), 1.9 mM L-glutamine (Invitrogen, cat. 25030081), and 9.7 microM Y-27632 dihydrochloride (Tocris Bioscience, Bristol, United Kingdom, cat. 1254). The PDCs were cultured in complete DMEM/F12 media without 10 microM Y-27632 dihydrochloride for at least two passages prior to the screen. The established cell lines NCI-H1341 and […] were cultured in DMEM/F-12, HEPES (Invitrogen, cat. 11330032), 5% defined fetal bovine serum (HyClone Laboratories Inc., cat. SH30070.03), ITS premix universal culture supplement [insulin (5 microg/mL), transferrin (5 microg/mL), and selenious acid (5 ng/mL)] […]

The mark [1] stands for this setting: curve of first compound, second compound 0.1 µM.
The mark [2] stands for this setting: curve of first compound, second compound 0.316 µM.
[3] abbreviates: curve of first compound, second compound 1 µM.
Setting [4] is: curve of first compound, second compound 3.16 µM.
Where [5] appears, read: curve of first compound, second compound 10 µM.
[6] abbreviates: second compound 0.1 µM, first compound 0.0316 µM.
[7] abbreviates: second compound 0.1 µM, first compound 0.1 µM.
The mark [8] stands for this setting: second compound 0.1 µM, first compound 0.316 µM.
Setting [9] is: second compound 0.1 µM, first compound 1 µM.
Where [10] appears, read: second compound 0.316 µM, first compound 0.0316 µM.
[11] abbreviates: second compound 0.316 µM, first compound 0.1 µM.
Where [12] appears, read: second compound 0.316 µM, first compound 0.316 µM.
Where [13] appears, read: second compound 0.316 µM, first compound 1 µM.
Where [14] appears, read: second compound 1 µM, first compound 0.0316 µM.
[15] abbreviates: second compound 1 µM, first compound 0.1 µM.
Where [16] appears, read: second compound 1 µM, first compound 0.316 µM.
[17] abbreviates: second compound 1 µM, first compound 1 µM.
Where [18] appears, read: second compound 3.16 µM, first compound 0.0316 µM.
Where [19] appears, read: second compound 3.16 µM, first compound 0.1 µM.
The mark [20] stands for this setting: second compound 3.16 µM, first compound 0.316 µM.
Where [21] appears, read: second compound 3.16 µM, first compound 1 µM.
Setting [22] is: second compound 10 µM, first compound 0.0316 µM.
The mark [23] stands for this setting: second compound 10 µM, first compound 0.1 µM.
The mark [24] stands for this setting: second compound 10 µM, first compound 0.316 µM.
The mark [25] stands for this setting: second compound 10 µM, first compound 1 µM.
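Throughout, for viability, T/C: compound exposure lasted 7 days.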

On to `CC(C)c1c(-c2ccccc2)nc2c(C#N)c[nH]n2c1=O`, for which the viability, T/C is, setting by setting: (compound 0.0316 µM) 102% and 99.4% and 99.2%; (compound 0.1 µM) 105% and 102% and 98.3%; (compound 0.316 µM) 92.7% and 106% and 104%; (compound 1 µM) 101% and 106% and 99%; (compound 3.16 µM) 95.7% and 110% and 93.8%; (compound 10 µM) 86.8% and 94.4% and 83.1%. The IC50 (curve of compound) was over 10000 nM.

As to `CC(CO)NC(=O)c1cc(-c2ccc(Cl)cc2)nn(-c2cnn(C)c2)c1=O` (stereo not drawn), the viability, T/C (compound 0.1 µM) was 98.9% [middle of 20 runs]. Also, where the note is “compound alone, run of 05/31/2022”, the IC50 is over 10000 nM.

Consider `CC1COCCN1c1cc(C2(S(C)(=N)=O)CC2)nc(-c2ccnc3[nH]ccc23)n1` (stereo not drawn), for which the viability, T/C by setting is: (compound 0.0316 µM) 104% and 101% and 99.6%; (compound 0.1 µM) 103% and 105% and 107%; (compound 0.316 µM) 96.5% and 102% and 92.8%; (compound 1 µM) 86.3% and 92.2% and 88.4%; (compound 3.16 µM) 84.8% (2×) and 74.1%; (compound 10 µM) 59.5% and 60.3% and 57.7%. The IC50 (curve of compound) was over 10000 nM.

Regarding `COc1ccc([C@@H](O)c2cc(-c3ncnc4cc(N5CCOCC5)ccc34)c(F)cc2Cl)nn1`, the viability, T/C was 96.5% and 101% and 108% (compound 0.0316 µM); 106% and 98.1% and 104% (compound 0.1 µM); 88.7% and 93.8% and 94.7% (compound 0.316 µM); 76.4% and 70% and 71.3% (compound 1 µM); 58.4% and 59.2% and 52.1% (compound 3.16 µM); 45.5% and 37.5% and 38.9% (compound 10 µM). The IC50 (curve of compound) was 6680 nM and 4700 nM and 3460 nM.

For the compound `Cc1ccccc1N=Nc1ccc(NC(=O)c2ccnn2C)c(C)c1`, the viability, T/C (compound 1 µM) is 99.6% [middle of 20 runs]. For the same compound, the IC50 (compound alone, run of 06/14/2022) was over 10000 nM.

For `Cc1cncc(-c2nc(NCCc3c[nH]c4ccccc34)c3ncn(C(C)C)c3n2)c1`, the viability, T/C was 103% [middle of 20 runs] (compound 0.316 µM) and 83.6% [middle of 20 runs] (compound 10 µM). In addition, where the note is “compound alone, run of 06/06/2022”, the IC50 was over 10000 nM.

With `COc1cccc2c1C(=O)c1c(O)c3c(c(O)c1C2=O)CC(O)(C(=O)CO)CC3OC1CC(N)C(O)C(C)O1` (stereo not drawn) + CC(CO)NC(=O)c1cc(-c2ccc(Cl)cc2)nn(-c2cnn(C)c2)c1=O, the IC50 came out at 393 nM under setting [1]; 396 nM under setting [2]; 445 nM under setting [3]; 375 nM under setting [4]; 361 nM under setting [5]. The viability, T/C runs as follows: under setting [6], 89.7%; under setting [7], 80.7%; under setting [8], 58.7%; under setting [9], 16.1%; (second compound 0.1 µM, first compound 3.16 µM) 3.94%; (second compound 0.1 µM, first compound 10 µM) 3.84%. Further, the viability, T/C reads like this: under setting [10], 83.9%; under setting [11], 79.3%; under setting [12], 58.1%; under setting [13], 17.5%; (second compound 0.316 µM, first compound 3.16 µM) 4.59%; (second compound 0.316 µM, first compound 10 µM) 3.12%. In addition, the viability, T/C was 85% under setting [14]; 87.3% under setting [15]; 64.8% under setting [16]; 14.5% under setting [17]; 3.33% (second compound 1 µM, first compound 3.16 µM); 3.66% (second compound 1 µM, first compound 10 µM). The viability, T/C is 75.8% under setting [18]; 79.4% under setting [19]; 55.9% under setting [20]; 13.1% under setting [21]; 4.03% (second compound 3.16 µM, first compound 3.16 µM); 3.23% (second compound 3.16 µM, first compound 10 µM). Besides, the viability, T/C by setting is: under setting [22], 88.9%; under setting [23], 87%; under setting [24], 56%; under setting [25], 3.3%; (second compound 10 µM, first compound 3.16 µM) 1.46%; (second compound 10 µM, first compound 10 µM) 3.96%.

On to `Nc1ncn(C2CC(O)C(CO)O2)c(=O)n1` (stereo not drawn) + CC(CO)NC(=O)c1cc(-c2ccc(Cl)cc2)nn(-c2cnn(C)c2)c1=O, for which the IC50 is over 1000 nM under setting [1]; over 1000 nM under setting [2]; over 1000 nM under setting [3]; over 1000 nM under setting [4]; over 1000 nM under setting [5]. Also, the viability, T/C is 92.5% (second compound 0.1 µM, first compound 0.00316 µM); 89.9% (second compound 0.1 µM, first compound 0.01 µM); 84.9% under setting [6]; 77.1% under setting [7]; 78.7% under setting [8]; 70.4% under setting [9]. For the same compound, the viability, T/C runs as follows: (second compound 0.316 µM, first compound 0.00316 µM) 88.4%; (second compound 0.316 µM, first compound 0.01 µM) 95%; under setting [10], 84.3%; under setting [11], 78.4%; under setting [12], 71.9%; under setting [13], 72.4%. The viability, T/C (second compound 1 µM, first compound 0.00316 µM) is 85%; the viability, T/C (second compound 1 µM, first compound 0.01 µM) is 104%; the viability, T/C under setting [14] was 85.3%; the viability, T/C under setting [15] was 81.8%; the viability, T/C under setting [16] is 72.3%; the viability, T/C under setting [17] was 72.2%. For the same compound, the viability, T/C (second compound 3.16 µM, first compound 0.00316 µM) was 95.4%; the viability, T/C (second compound 3.16 µM, first compound 0.01 µM) was 90.7%; the viability, T/C under setting [18] was 87.3%; the viability, T/C under setting [19] was 75.2%; the viability, T/C under setting [20] was 70.1%; the viability, T/C under setting [21] is 68.9%. The viability, T/C runs as follows: (second compound 10 µM, first compound 0.00316 µM) 97.5%; (second compound 10 µM, first compound 0.01 µM) 99.6%; under setting [22], 92.3%; under setting [23], 81.8%; under setting [24], 80%; under setting [25], 77.1%.
